Source: article PMC10584170, “Machine learning-based phenotypic imaging to characterise the targetable biology of Plasmodium falciparum male gametocytes for the development of transmission-blocking antimalarials” (PLOS Pathogens, 2023)

Experiments:
[1] = test system: P. falciparum male gametocytes; experiment: P. falciparum Dual Gamete Formation Assay (PfDGFA), male readout (exflagellation); format: cell-based, Plasmodium falciparum NF54; conditions: for Average inhibition male (%): average of replicates; for % inhibition male (individual replicates) R1: replicate R1; for % inhibition male (individual replicates) R3: replicate R3; for % inhibition male (individual replicates) R4: replicate R4; for Activity: hit = >50% inhibition in male or female readout in at least 3 replicates, 0 = no class assigned
In short: (§1)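 Day-14 NF54 gametocytes were incubated with compound for 24 h at 37°C under 1% O2/3% CO2/96% N2. Gametogenesis was triggered with ookinete medium (0.1 μM xanthurenic acid) plus Cy3-anti-Pfs25, and exflagellation was imaged by brightfield after cooling to 4°C then 28°C. Females were imaged by Pfs25 fluorescence 24 h later at 28°C.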

[2] = test system: P. falciparum female gametocytes; experiment: P. falciparum Dual Gamete Formation Assay (PfDGFA), female readout (Pfs25-positive female gametes); format: cell-based, Plasmodium falciparum NF54; conditions: for Average inhibition female (%): average of replicates; for % inhibition female (individual replicates) R1: replicate R1; for % inhibition female (individual replicates) R3: replicate R3; for % inhibition female (individual replicates) R4: replicate R4
In short: as §1

[3] = PfDGFA at 2µM, 24h preincubation with gametocytes
[4] = PfDGFA at 2µM, 24h preincubation with gametocytes prior to induction of gametogenesis
[5] = PfDGFA at 2µM, 24h preincubation
[6] = 2µM, 24h preincubation with gametocytes prior to induction of gametogenesis
[7] = 2µM, 24h preincubation, hits selected on >50% inhibition in the male readout across replicates
[8] = 2µM, 24h preincubation, hits selected on >50% inhibition in the female readout across replicates

`CCCN(CCC)CCCN(CCCN(CCC)CCC)c1cc(C)nc(Nc2ccc3cc(Br)ccc3c2)n1.Cl` [TCMDC-138006] was tested, and the “Average inhibition male (%)” value [1, 3] was 65.9%, the “% inhibition male (individual replicates) R1” value [1, 3] was 64.4% and the “% inhibition male (individual replicates) R3” value [1, 3] was 70.2%. For the same compound, the “% inhibition male (individual replicates) R4” value [1, 3] was 75.1%, the HitlevelM ([1]; number of replicates with >50% inhibition in the male readout, 2µM) was 4 and the “Average inhibition female (%)” value [2, 3] was 38.7%. The “% inhibition female (individual replicates) R1” value [2, 3] was 42.6%, the “% inhibition female (individual replicates) R3” value [2, 3] was 25.8% and the “% inhibition female (individual replicates) R4” value [2, 3] was 40.6%. It also gave a HitlevelF ([2]; number of replicates with >50% inhibition in the female readout, 2µM) of 0.
For `Cc1ccc2ccncc2c1N` [TCMDC-138025], the “% inhibition male (individual replicates) R1” value [1, 4] was 6.2%, the “% inhibition male (individual replicates) R3” value [1, 4] was 45.8% and the “% inhibition male (individual replicates) R4” value [1, 4] was 37.3%. The “Average inhibition male (%)” value [1, 5] was 29.9%, the “% inhibition female (individual replicates) R1” value [2, 4] was -5.1% and the “% inhibition female (individual replicates) R3” value [2, 4] was -43.7%. For the same compound, the “% inhibition female (individual replicates) R4” value [2, 4] was -6.6% and the “Average inhibition female (%)” value [2, 5] was -17.6%.
In the case of `Cc1c(Cc2ccc(C(C)C)cc2)cnc2nc(N)nc(N)c12` [TCMDC-138044], the “% inhibition male (individual replicates) R1” value [1, 4] is reported as 10.0%, the “% inhibition male (individual replicates) R3” value [1, 4] is reported as -13.9% and the “% inhibition male (individual replicates) R4” value [1, 4] is reported as -19.8%. The “Average inhibition male (%)” value [1, 5] was -5.8%, the “% inhibition female (individual replicates) R1” value [2, 4] was 2.8% and the “% inhibition female (individual replicates) R3” value [2, 4] was -15.2%. For the same compound, the “% inhibition female (individual replicates) R4” value [2, 4] was -3.9% and the “Average inhibition female (%)” value [2, 5] was -2.8%.
With `COc1ccc(Cc2cnc3nc(N)nc(N)c3c2C)cc1OC.O=S(=O)(O)CCO` [TCMDC-138057] the “Average inhibition male (%)” value [1, 6] was -16.7%, the “% inhibition male (individual replicates) R1” value [1, 6] was 13.3% and the “% inhibition male (individual replicates) R3” value [1, 6] was -15.1%. For the same compound, the “% inhibition male (individual replicates) R4” value [1, 6] was -55.1%, the HitlevelM [1, 7] was 0 and the Activity [1, 5] was 0. For the same compound, the “Average inhibition female (%)” value [2, 6] was 4.5%, the “% inhibition female (individual replicates) R1” value [2, 6] was 12.4% and the “% inhibition female (individual replicates) R3” value [2, 6] was -12.7%. The “% inhibition female (individual replicates) R4” value [2, 6] was 12.4% and the HitlevelF [2, 8] was 0.
With `COc1cccc(Cc2cnc3nc(N)nc(N)c3c2C)c1` [TCMDC-138060] the “% inhibition male (individual replicates) R1” value [1, 4] was 14.7%, the “% inhibition male (individual replicates) R4” value [1, 4] was -36.5% and the “Average inhibition male (%)” value [1, 5] was 7.0%. The “% inhibition female (individual replicates) R1” value [2, 4] was -4.3%, the “% inhibition female (individual replicates) R3” value [2, 4] was -2.0% and the “% inhibition female (individual replicates) R4” value [2, 4] was 3.5%. For the same compound, the “Average inhibition female (%)” value [2, 5] was -1.4%.
In the case of `COc1ccc(Cc2c(N)nc3nc(N)nc(N)c3c2C)cc1.Cl` [TCMDC-138061], the “% inhibition male (individual replicates) R1” value [1, 4] is reported as 17.1%, the “% inhibition male (individual replicates) R4” value [1, 4] is reported as -37.2% and the “Average inhibition male (%)” value [1, 5] is reported as 0.0933%. The “% inhibition female (individual replicates) R1” value [2, 4] was -3.3%, the “% inhibition female (individual replicates) R3” value [2, 4] was 4.2% and the “% inhibition female (individual replicates) R4” value [2, 4] was -0.2%. The “Average inhibition female (%)” value [2, 5] was 0.4%.
For `Cc1nc(N)nc(N)c1CCCOc1ccccc1Br` [TCMDC-138069], the “Average inhibition male (%)” value [1, 6] was 1.8%, the “% inhibition male (individual replicates) R1” value [1, 6] was 12.4% and the “% inhibition male (individual replicates) R3” value [1, 6] was -15.7%. The “% inhibition male (individual replicates) R4” value [1, 6] was -23.1%, the HitlevelM [1, 7] was 0 and the Activity [1, 5] was 0. The “Average inhibition female (%)” value [2, 6] was 5.9%, the “% inhibition female (individual replicates) R1” value [2, 6] was 14.2% and the “% inhibition female (individual replicates) R3” value [2, 6] was 13.3%. For the same compound, the “% inhibition female (individual replicates) R4” value [2, 6] was -1.6% and the HitlevelF [2, 8] was 0.
With `Cc1nc(N)nc(N)c1-c1ccc(Br)c([N+](=O)[O-])c1` [TCMDC-138071] the “Average inhibition male (%)” value [1, 6] was -11.3%, the “% inhibition male (individual replicates) R1” value [1, 6] was 15.3% and the “% inhibition male (individual replicates) R3” value [1, 6] was 5.2%. For the same compound, the “% inhibition male (individual replicates) R4” value [1, 6] was -48.5%, the HitlevelM [1, 7] was 0 and the Activity [1, 5] was 0. The “Average inhibition female (%)” value [2, 6] was 6.9%, the “% inhibition female (individual replicates) R1” value [2, 6] was 11.0% and the “% inhibition female (individual replicates) R3” value [2, 6] was 2.2%. The “% inhibition female (individual replicates) R4” value [2, 6] was 10.1% and the HitlevelF [2, 8] was 0.
With `Cl.Clc1ccc(CNCCCCCCCNCc2ccc(Cl)c(Cl)c2)cc1Cl` [TCMDC-138075] the “Average inhibition male (%)” value [1, 6] was 58.0%, the “% inhibition male (individual replicates) R1” value [1, 6] was 51.9% and the “% inhibition male (individual replicates) R4” value [1, 6] was 51.1%. The HitlevelM ([1]; 2µM, 24h preincubation, number of replicates with >50% inhibition in the male readout) was 3, the “Average inhibition female (%)” value [2, 6] was 16.8% and the “% inhibition female (individual replicates) R1” value [2, 6] was 19.3%. The “% inhibition female (individual replicates) R3” value [2, 6] was 11.6%, the “% inhibition female (individual replicates) R4” value [2, 6] was 13.1% and the HitlevelF ([2]; 2µM, 24h preincubation, number of replicates with >50% inhibition in the female readout) was 0.
